Measured values reported in US10479792B2, “Compounds” (GlaxoSmithKline Intellectual Property Development Limited, priority 2015, dated 2019).

What was measured:
Trypanosoma cruzi = Trypanosoma cruzi intracellular assay (Assay 2); format: cell-based; details: infected H9C2 rat cardiomyocytes, 72 h incubation, read-out: pEC50 value against Trypanosoma cruzi (converted)
Method: Compounds were dispensed into black 384-well assay plates (Greiner) by acoustic dispensing (LabCyte ECHO). For potency determinations, eleven-point, one in three dilution curves were generated, with a top concentration of 50 μM. H9C2 rat cardiomyocytes cells were dispensed in T225 tissue culture flasks and after 4 hours they were infected during 18 hours with T. cruzi trypomastigotes in the same T225 tissue culture flasks at a multiplicity of infection of 1. Next, any remaining free trypomastigotes were washed away with PBS and the infected H9C2 cells were harvested by trypsinisation. The infected H9C2 cells were then plated into 384-well plates containing the compounds to be tested, at 2500 cells per well in DMEM media with 2% FBS, 1% Penicillin/Streptomicin, 2 mM L-Glutamine, 1 mM Na Pyruvate and 25 mM HEPES. After 72 h incubation at 37° C. in presence of 5% CO2, the plates were fixed and stained with 4% formaldehyde and 2 μM Draq5 for 3 hours at room temperature. The plates were imaged on a Perkin Elmer Opera high-content imaging system using a 20× air objective. Images were analyzed using the Acapella building blocks system (Perkin Elmer). The image analysis algorithm first identified the H9C2 nuclei followed by demarcation of the cytoplasm and identification of intracellular amastigotes. This algorithm reported mean number of parasites per H9C2 cell, the percentage of infected H9C2 cells and the total number of H9C2 cells.

[1] = Solubility assay, ChemiLuminescent Nitrogen Detection (CLND) (Assay 4); format: physicochemical; details: phosphate buffered saline (PBS) pH 7.4, aqueous buffer, kinetic from dmso stock, PBS pH 7.4, from 10 mM DMSO stock, 1 h at room temperature
Method: Assay 4. Solubility Assay—ChemiLuminescent Nitrogen Detection (CLND) I. Compounds A 10 mM DMSO stock solution of the compound was prepared. Solvents and Buffers Organic solvents of HPLC grade were used. Ultra pure water (Milli-Q grade) was used. Buffers were prepared with ultra pure water and filtered using 0.45μ cameo filters. Aqueous Buffer Solution: Phosphate Buffer Saline (PBS) @ pH 7.4 was prepared from Sigma dry powder packs, P-3813. Each one was diluted to 1 liter with deionised water. The pH was checked before the solution was used II. Procedures. • a) DMSO concentration was measured. DMSO blanks and ondansetron and caffeine standards were added to the plate (column 12, A, B, C, & D for the blanks and E, F, G, & H for the standards). Plates were covered with foil. When the UV and CLND detectors baselines appeared to be stable, the CLND was zeroed. • b) Once DMSO concentration measurements were complete, a filtration plate was prepared from each parent plate by diluting 5 μl of the 10 mM DMSO stock solution to […] with pH7.4 PBS. • c) After the plates were prepared, they were covered with a plate lid and left to incubate for 1 h at room temperature. • d) Sample was filtered using MILLIPORE MultiScreen Solubility (MSSLBPC10) Filtration Plates, to NUNC V well plates. […]

THP-1 cells = experiment: Intramacrophage Leishmania donovani assay (Assay 1), THP-1 cell count (cytotoxicity readout); format: cell-based; details: human, 96 h incubation, read-out: cytotoxicity against THP-1 cells, pEC50 (converted)
Method: Assay 1. Intramacrophage Leishmania donovani Assay
The intramacrophage Leishmania assay was performed using a modified version of the method described in De Rycker et al. (Antimicrob Agents Chemother. 2013 July; 57(7):2913-22. Comparison of a high-throughput high-content intracellular Leishmania donovani assay with an axenic amastigote assay. De Rycker M, Hallyburton I, Thomas J, Campbell L, Wyllie S, Joshi D, Cameron S, Gilbert I H, Wyatt P G, Frearson J A, Fairlamb A H, Gray D W.). Procedure: 350 nl of compound was pre-dispensed into 384 well sterile intermediary plates. For single point screening, amphotericin B was added to all wells of column 24 as a positive control (final concentration 2 μM) and DMSO to column 23. For potency determinations, ten-point, one in three dilution curves were created with the highest concentration being 50 μM and on each plate a control curve of amphotericin B was included. Controls were as follows: columns 11 and 12: DMSO, columns 23 and 24: amphotericin B (final concentration 2 μM). To the intermediary plates, 35 μl of THP-1 media was added and plates were shaken for >5 min to ensure complete mixing. […] For each well, i) THP-1 cell count (cytotoxicity readout) and ii) average number of amastigotes per cell (potency readout) were calculated, both in terms of pEC50 values.

- solubility at 1 h [1]: > 444 µM
Structure (SMILES): O=C(Nc1ccc(F)c(-c2ccn3c(N4CCOCC4)cnc3n2)c1)N1CCCC1 [Example 4, N-(4-fluoro-3-(3-morpholinoimidazo[1,2-a]pyrimidin-7-yl)phenyl)pyrrolidine-1-carboxamide]
- EC50 (Trypanosoma cruzi): 39.8 nM
- EC50 at 96 h (THP-1 cells): > 50100 nM
